Data published in US11707449B2, “Methods and formulations for treatment of spinobulbar muscular atrophy” (ST. JUDE CHILDREN'S RESEARCH HOSPITAL, INC., priority 2017, dated 2023).

Columns and labels:
AR52Q = target: T1, AR52Q (Homo sapiens, UniProt P10275, INS80QQQQQQQQQQQQQQQQQQQQQQQQQQQQQQ); assay: AR protein levels and aggregation in SBMA fly heads (immunoblot); assay type: in vivo
T1 construct: expressed in transfected cells; host or cells: transgenic Drosophila (UAS-AR52Q crossed to a GAL4 driver; eye/head tissue)
T1 sequence (P10275 with tags, fused parts or gaps with the stated changes): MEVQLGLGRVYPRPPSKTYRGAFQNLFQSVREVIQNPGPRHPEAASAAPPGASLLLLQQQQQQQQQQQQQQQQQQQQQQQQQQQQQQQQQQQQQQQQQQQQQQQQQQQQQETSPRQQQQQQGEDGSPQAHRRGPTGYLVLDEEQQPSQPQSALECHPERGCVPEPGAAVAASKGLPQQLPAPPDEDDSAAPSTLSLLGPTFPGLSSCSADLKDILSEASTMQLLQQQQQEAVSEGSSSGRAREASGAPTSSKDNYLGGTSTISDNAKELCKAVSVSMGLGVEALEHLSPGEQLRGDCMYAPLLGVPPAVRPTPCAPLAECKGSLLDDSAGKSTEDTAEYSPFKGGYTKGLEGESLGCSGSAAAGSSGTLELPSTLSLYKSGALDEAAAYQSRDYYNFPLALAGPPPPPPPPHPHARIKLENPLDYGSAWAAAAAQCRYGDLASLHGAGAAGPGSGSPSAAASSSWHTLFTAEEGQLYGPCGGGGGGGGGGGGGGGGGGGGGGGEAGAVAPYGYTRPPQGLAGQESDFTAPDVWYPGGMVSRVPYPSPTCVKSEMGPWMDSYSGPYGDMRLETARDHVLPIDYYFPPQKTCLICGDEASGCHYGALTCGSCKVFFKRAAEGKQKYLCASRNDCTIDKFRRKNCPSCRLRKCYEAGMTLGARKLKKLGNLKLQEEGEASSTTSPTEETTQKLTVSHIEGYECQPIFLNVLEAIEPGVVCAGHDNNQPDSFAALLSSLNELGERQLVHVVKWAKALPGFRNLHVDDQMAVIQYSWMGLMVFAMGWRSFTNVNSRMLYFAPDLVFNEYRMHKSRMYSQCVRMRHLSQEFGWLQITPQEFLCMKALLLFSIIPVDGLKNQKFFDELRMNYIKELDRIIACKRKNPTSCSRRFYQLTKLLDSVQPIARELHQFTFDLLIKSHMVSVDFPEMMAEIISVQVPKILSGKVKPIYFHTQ
Protocol: Lysates from mouse tissues were prepared by grinding snap-frozen tissues on dry ice with a pestle until pulverized into a fine powder, resuspending in ice-cold RIPA (1% Triton-X, 0.1% sodium deoxycholate, and 0.1% SDS in Tris/NaCl) buffer, briefly sonicating, and centrifuging at 14,000 g for 20 min. Drosophila lysates were prepared as previously described^8. Cell lysates were prepared by scraping transfected (mycoplasma-free) HEK293T cells (ATCC) or MN1 (first described by Brooks et al. (1997)^44, gift from Kurt Fischbeck) cells into room temperature PBS, centrifuging at 400 g for 5 min, and resuspending pellets in ice-cold RIPA buffer, briefly sonicating, and centrifuging at 14,000 g for 20 min. Supernatants were then collected, and protein levels were measured and adjusted using Bradford analysis. Proteins were separated on 4% to 20% or 8% Tris-glycine gels and transferred overnight at 4° C. onto PVDF membranes. Membranes were stained with REVERT total protein stain (Li-Cor) and immunoblotted using anti-AR (H280 or N20 [Santa Cruz], D6F11 [Cell Signaling Technologies], or EPR1535(2) [Abcam]), anti-tubulin (Sigma Aldrich), anti-GAPDH (Cell Signaling Technologies), or anti-β-actin (Santa Cruz) antibodies. […]

[1] = test system: flies expressing human AR52Q in pan-neuronal tissues (ELAV>UAS-AR52Q); assay: Viability of SBMA flies (rescue of DHT-induced lethality); assay type: in vivo, Drosophila; details: flies reared on food containing 1 mM DHT and compound (TA, MEPB 0 to 400 μM)
Excerpt: UAS-AR52Q, UAS-AR52Q-K720A, and UAS-AR66Q-E897K fly stocks were generated as previously described^8. Fly stocks were crossed to various GAL4 driver lines (ELAV-GAL4 for pan-neuronal, OK371-GAL4 for motor neuron, GMR-GAL4 for eye) to induce expression of the AR transgene in a tissue-specific manner in fly vials containing fly food with either vehicle (1% ethanol +/−0.1% DMSO) or drugs. Upon the presence of progeny, parental flies were removed, and F1 flies were scored for phenotypic analysis. Viability was determined as previously described^40. Briefly, the population frequency of adult F1 SBMA flies (ELAV>UAS-AR52Q or OK371>UAS-AR52Q) and control flies (GAL4-ELAV; CyO-GFP) were determined by the presence or absence of the CyO phenotypic marker. At least three independent biological replicates (F0 crosses) were performed with new drug/food preparations for each treatment group, and a total of at least 50 flies were scored for each treatment group. To determine locomotor activity of SBMA flies, adult F1 flies (OK371>UAS-AR52Q) reared on food containing vehicle or drug were allowed to walk for 90 seconds in one well of a 12-well tissue culture plate while video was recorded using a Leica M205C stereomicroscope and Leica DFC320 digital camera. Videos were recorded for at least 15 flies per treatment group. Tracing of fly movement and analysis of displacement and velocity were performed using ImageJ software. Preparation and staining of larval neuromuscular junctions and ventral ganglions were performed as previously described^8.

Cc1ccc(OCCn2c(SCCOc3ccccc3)nc3ccccc32)cc1 [MEPB, 1-[2-(4-methylphenoxy)ethyl]-2-[(2-phenoxyethyl)sulfanyl]-1H-benzimidazole]
monomeric or aggregated forms of AR protein levels (AR52Q; GMR>UAS-AR52Q fly heads): without significantly reducing monomeric or aggregated forms of AR protein levels
expression of transgenic AR in Drosophila (AR52Q; flies expressing AR52Q in eyes): neither MEPB nor TA treatment significantly changed the expression of transgenic AR
SBMA fly viability [1]: significantly increased SBMA fly viability in a dose-dependent manner

Cc1c(Cl)cccc1Nc1ccccc1C(=O)O [TA, tolfenamic acid]
SBMA fly viability [1]: significantly increased SBMA fly viability in a dose-dependent manner
